Results published in patent US9994533B2, “Method of preparing ATG's analogue, and the application of ATG and it's analogue” (Longhua Hospital Shanghai University of Traditional Chinese …, priority 2016, dated 2018).

Tests used:
[1] = target: T1, Heterogeneous nuclear ribonucleoprotein H2 (Homo sapiens, UniProt P55795); assay: DARTS mass spectrometry of 293T lysate after ATG; format: binding; details: ATG 300 μM, pronase 1:1000, HNRH2_HUMAN
T1 construct: endogenous in cells; host or cells: 293T
T1 sequence (P55795 1-449): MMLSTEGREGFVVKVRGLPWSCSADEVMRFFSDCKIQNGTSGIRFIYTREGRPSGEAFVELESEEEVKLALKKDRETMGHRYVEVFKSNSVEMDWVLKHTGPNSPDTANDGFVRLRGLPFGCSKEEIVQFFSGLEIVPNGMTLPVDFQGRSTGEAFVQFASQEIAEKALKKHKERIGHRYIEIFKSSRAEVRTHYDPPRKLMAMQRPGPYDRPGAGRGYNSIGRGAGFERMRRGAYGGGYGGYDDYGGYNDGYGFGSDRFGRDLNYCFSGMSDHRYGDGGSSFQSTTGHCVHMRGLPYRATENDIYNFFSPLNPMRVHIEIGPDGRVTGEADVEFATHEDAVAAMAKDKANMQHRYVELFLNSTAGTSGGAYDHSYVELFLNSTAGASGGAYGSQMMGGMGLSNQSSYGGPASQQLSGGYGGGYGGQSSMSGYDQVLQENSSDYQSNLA
Method: (§1) 293T cells were digested with M-PER mammalian protein extraction buffer (78501 ThermoFisher) and phosphatase inhibitor (50 mM NaF, 10 mM β-glycerophosphate, 5 mM sodium pyrophosphate, 2 mM Na3VO4); and the protein concentration is determined by Bradford method (500-0006 Bio-rad). ATG was either added or not in the cell lysate. If added, the concentration of ATG was 300 μM. The cells were incubated at room temperature for 1 h. The cells were then lysed by incubating for 20 minutes at room temperature with different concentrations of pronase at 1:1000 (10165921001, Roche). The two groups of lysates are subjected to mass spectrometry and then compared.

[2] = target: T2, Keratin, type I cytoskeletal 17 (Homo sapiens, UniProt Q04695); assay: DARTS mass spectrometry of 293T lysate after ATG; format: binding; details: ATG 300 μM, pronase 1:1000, K1C17_HUMAN
T2 construct: endogenous in cells; host or cells: 293T
T2 sequence (Q04695 1-432): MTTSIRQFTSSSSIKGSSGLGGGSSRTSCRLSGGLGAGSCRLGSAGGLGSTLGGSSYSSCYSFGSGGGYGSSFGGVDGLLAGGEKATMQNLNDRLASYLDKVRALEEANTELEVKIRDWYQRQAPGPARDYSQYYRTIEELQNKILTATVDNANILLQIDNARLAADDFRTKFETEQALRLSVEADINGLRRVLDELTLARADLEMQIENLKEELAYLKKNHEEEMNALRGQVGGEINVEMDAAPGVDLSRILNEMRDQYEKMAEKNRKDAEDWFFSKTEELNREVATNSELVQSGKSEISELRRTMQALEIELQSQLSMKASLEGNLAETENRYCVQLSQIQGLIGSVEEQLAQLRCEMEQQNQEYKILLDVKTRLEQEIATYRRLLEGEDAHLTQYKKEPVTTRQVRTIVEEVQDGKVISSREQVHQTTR
Method: as §1

[3] = target: T3, Protein transport protein Sec61 subunit alpha isoform 1 (Homo sapiens, UniProt P61619); assay: DARTS mass spectrometry of 293T lysate after ATG; format: binding; details: ATG 300 μM, pronase 1:1000, S61A1_HUMAN
T3 construct: endogenous in cells; host or cells: 293T
Method: as §1

[4] = target: T4, Keratin, type II cytoskeletal 5 (Homo sapiens, UniProt P13647); assay: DARTS mass spectrometry of 293T lysate after ATG; format: binding; details: ATG 300 μM, pronase 1:1000, K2C5_HUMAN
T4 construct: endogenous in cells; host or cells: 293T
T4 sequence (P13647 1-590): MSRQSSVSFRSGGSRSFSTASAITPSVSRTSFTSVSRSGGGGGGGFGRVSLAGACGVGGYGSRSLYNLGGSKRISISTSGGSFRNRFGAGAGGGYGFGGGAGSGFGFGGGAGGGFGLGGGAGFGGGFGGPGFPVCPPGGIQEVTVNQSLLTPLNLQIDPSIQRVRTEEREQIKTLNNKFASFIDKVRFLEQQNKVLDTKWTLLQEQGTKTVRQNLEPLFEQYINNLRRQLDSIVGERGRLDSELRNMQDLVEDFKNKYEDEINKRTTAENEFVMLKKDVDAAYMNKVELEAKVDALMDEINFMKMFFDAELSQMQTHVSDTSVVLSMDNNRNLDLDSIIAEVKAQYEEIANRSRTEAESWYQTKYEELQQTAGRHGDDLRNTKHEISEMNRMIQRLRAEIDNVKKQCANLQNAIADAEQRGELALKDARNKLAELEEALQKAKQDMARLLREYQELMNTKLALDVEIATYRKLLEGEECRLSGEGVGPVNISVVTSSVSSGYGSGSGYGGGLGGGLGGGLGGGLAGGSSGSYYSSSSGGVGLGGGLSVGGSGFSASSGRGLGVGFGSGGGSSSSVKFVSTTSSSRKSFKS
Method: as §1

[5] = target: T5, Keratin, type II cytoskeletal 6A (Homo sapiens, UniProt P02538); assay: DARTS mass spectrometry of 293T lysate after ATG; format: binding; details: ATG 300 μM, pronase 1:1000, K2C6A_HUMAN
T5 construct: endogenous in cells; host or cells: 293T
T5 sequence (P02538 2-564 limits assumed): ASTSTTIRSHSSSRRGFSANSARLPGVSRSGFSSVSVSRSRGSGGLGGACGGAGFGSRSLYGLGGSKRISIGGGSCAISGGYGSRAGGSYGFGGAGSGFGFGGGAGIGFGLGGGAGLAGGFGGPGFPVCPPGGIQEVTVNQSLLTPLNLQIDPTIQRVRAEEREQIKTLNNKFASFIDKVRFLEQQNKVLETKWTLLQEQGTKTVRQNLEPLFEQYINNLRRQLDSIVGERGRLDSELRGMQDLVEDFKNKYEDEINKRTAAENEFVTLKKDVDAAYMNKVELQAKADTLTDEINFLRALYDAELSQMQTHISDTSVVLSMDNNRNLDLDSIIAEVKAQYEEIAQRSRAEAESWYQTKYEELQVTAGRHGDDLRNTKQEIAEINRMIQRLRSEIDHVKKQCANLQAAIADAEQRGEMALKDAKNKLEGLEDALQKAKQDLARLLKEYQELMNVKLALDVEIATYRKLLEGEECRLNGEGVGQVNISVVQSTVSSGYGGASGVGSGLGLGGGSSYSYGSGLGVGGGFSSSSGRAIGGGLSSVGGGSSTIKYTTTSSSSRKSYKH
Method: as §1

[6] = test system: NOX4 mRNA; assay: NOX4 mRNA expression in mouse primary endothelial cells under high glucose (Realtime PCR); format: cell-based; details: FIG. 9
Description: The detection method of Western Blot and mRNA used in the present embodiment is a detection method commonly used by person skilled in the art, and the specific detection method is described in “Molecular Biology Laboratory Manual” (People's Military Medical Press, published in 2011 Jun. 1). 3.2 Western blot and Realtime PCR confirmed that ATG could inhibit the overexpression of NOX4 in mouse's primary endothelial cells. The dose of 1 and 10 μmol/L corresponds to the last two bands.

Ratio (ATG/DMSO) [1]: 6.8 | Spectral Count (ATG) [1]: 12 | Ratio (ATG/DMSO) [2]: 4.7 | Spectral Count (ATG) [2]: 7 | Ratio (ATG/DMSO) [3]: 4.7 | Spectral Count (ATG) [3]: 7 | Ratio (ATG/DMSO) [4]: 4.7 | Spectral Count (ATG) [4]: 7 | Ratio (ATG/DMSO) [5]: 5.2 | Spectral Count (ATG) [5]: 8
Structure (SMILES): COc1cc(C[C@H]2C(=O)OC[C@@H]2Cc2ccc(OC)c(OC)c2)ccc1O [ATG, Arctigenin]
overexpression of NOX4 mRNA induced by high glucose [6]: inhibited the overexpression of NOX4 mRNA
